Reference: patent publication US20230089867A1, “CYCLIC PENTAMER COMPOUNDS AS PROPROTEIN CONVERTASE SUBTILISIN/KEXIN TYPE 9 (PCSK9) INHIBITORS FOR THE TREATMENT OF METABOLIC DISORDER” (Novartis AG, priority 2018, published 2023)

Molecular target: human PCSK9 (Homo sapiens, UniProt Q8NBP7)
Assay: PCSK9 ligand binding TR-FRET assay (interference with binding of human PCSK9 to human LDLR)
Conditions: for Max % inhibition: PCSK9 FRET assay, efficacy (Amax), 100% = 1 uM unlabeled human PCSK9, 0% = DMSO; for IC50: TR-FRET, human PCSK9 Alexa Fluor 647 / human LDLR extracellular domain-Europium Kryptate, read-out: PCSK9 FRET Assay IC50
Procedure: The PCSK9 binding of the compounds of the disclosure were measured using a time resolved fluorescence resonance energy transfer (TR-FRET) assay. This time resolved fluorescence resonance energy transfer (TR-FRET) assay measures the ability of a compound of the present disclosure to interfere with the binding of human PCSK9 to human LDLR, providing measures of both potency (IC50) and efficacy (Amax).
These solutions were pipetted into columns 1 and 11 of the compound plate. Threefold serial dilutions were generated in columns 2-10 and 12-20 of the compound plate by transferring 10 uL into 20 uL of DMSO. Columns 21 and 22 of the compound plate were negative controls containing DMSO alone.
An intermediate plate was generated in a Greiner V bottom plate by transferring 8 uL from each well of the master plate into a corresponding well containing 92 uL of assay buffer and mixing thoroughly.
A Proxi plate-low volume assay plate was used for the assay. […] For the positive control wells in columns 23 and 24 of the plate, 5 uL of unlabeled human PCSK9 was added at 4 uM in assay buffer containing 8% DMSO. Following a 30 minute incubation, 5 uL of 4 nM Human LDLR extracellular domain-Europium Kryptate was added and the mixture was incubated for an additional 2 hours.
The FRET ratio (FRET/Europium) was used for calculations.
Data is expressed as percent inhibition: (value−0%)/(100%−0%).

Chain of human PCSK9 (Q8NBP7 153-692): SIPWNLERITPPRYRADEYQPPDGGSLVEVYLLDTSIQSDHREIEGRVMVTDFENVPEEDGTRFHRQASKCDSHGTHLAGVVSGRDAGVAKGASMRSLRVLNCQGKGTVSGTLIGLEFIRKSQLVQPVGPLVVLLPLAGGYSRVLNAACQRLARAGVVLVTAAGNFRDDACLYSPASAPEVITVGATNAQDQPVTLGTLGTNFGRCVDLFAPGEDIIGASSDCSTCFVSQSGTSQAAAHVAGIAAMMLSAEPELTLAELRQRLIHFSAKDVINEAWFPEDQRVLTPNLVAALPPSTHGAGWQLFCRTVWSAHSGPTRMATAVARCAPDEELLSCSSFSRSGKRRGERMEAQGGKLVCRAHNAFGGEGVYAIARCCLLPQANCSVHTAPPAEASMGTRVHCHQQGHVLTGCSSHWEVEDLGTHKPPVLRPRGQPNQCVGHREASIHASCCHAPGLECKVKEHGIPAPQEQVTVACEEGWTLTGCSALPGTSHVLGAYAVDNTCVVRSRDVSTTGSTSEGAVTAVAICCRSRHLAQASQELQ
Chain of human PCSK9 (Q8NBP7 31-152 partner limits assumed): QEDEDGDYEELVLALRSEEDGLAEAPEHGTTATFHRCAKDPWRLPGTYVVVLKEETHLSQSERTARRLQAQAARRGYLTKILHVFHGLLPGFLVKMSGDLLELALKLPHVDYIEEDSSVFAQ

Compound: COC[C@@H]1NC(=O)[C@H](C)N(Cc2ccc(Cl)cc2Oc2ccc(-c3cnc(CN(C)C)n3C)cc2)C(=O)C[C@@H](Cc2cccc(C(F)F)c2)C(=O)N(C)[C@@H](C)CNC(=O)C[C@H](Cc2ccc(Cl)cc2)N(C)C1=O [Compound 56, (2S,5S,8S,13S,16R)-1-(4-chloro-2-(4-(2-((dimethylamino)methyl)-1-methyl-1H-imidazol-5-yl)phenoxy)benzyl)-8-(4-chlorobenzyl)-16-(3-(difluoromethyl)benzyl)-5-(methoxymethyl)-2,7,13,14-tetramethyl-1,4,7,11,14-pentaazacyclooctadecane-3,6,10,15,18-pentaone]
- Max % inhibition: 101.80%
- IC50: 2.6 nM

Compound: COC[C@H]1C(=O)N[C@@H](CO)C(=O)N(C)[C@@H](Cc2ccc(Cl)cc2)CC(=O)NC[C@H](C)N(C)C(=O)CCC(=O)N1Cc1ccccc1Oc1ccc(-c2cnc(CN(C)C)n2C)cc1 [Compound 200, (2S,5S,8S,13S)-8-(4-chlorobenzyl)-1-(2-(4-(2-((dimethylamino)methyl)-1-methyl-1H-imidazol-5-yl)phenoxy)benzyl)-5-(hydroxymethyl)-2-(methoxymethyl)-7,13,14-trimethyl-1,4,7,11,14-pentaazacyclooctadecane-3,6,10,15,18-pentaone]
- Max % inhibition: 93.78%
- IC50: 65.4 nM

Compound: COC[C@@H]1NC(=O)[C@H](C)N(Cc2ccc(Cl)cc2Oc2ccc(-c3cnc4c(c3)CN(C(=O)[C@@H]3CCNC3)CC4)cc2)C(=O)C[C@@H](Cc2ccccc2)C(=O)N(C)[C@@H](C)CNC(=O)C[C@H](Cc2ccc(Cl)cc2)N(C)C1=O [Compound 212, (2S,5S,8S,13S,16R)-16-benzyl-1-(4-chloro-2-(4-(6-((R)-pyrrolidine-3-carbonyl)-5,6,7,8-tetrahydro-1,6-naphthyridin-3-yl)phenoxy)benzyl)-8-(4-chlorobenzyl)-5-(methoxymethyl)-2,7,13,14-tetramethyl-1,4,7,11,14-pentaazacyclooctadecane-3,6,10,15,18-pentaone]
- Max % inhibition: 71.82%
- IC50: 5.4 nM

Compound: COC[C@@H]1NC(=O)[C@H](C)N(Cc2ccc(Cl)cc2Oc2ccc(-c3cnc4n3CCN(C(=O)[C@H]3CCOC3)C4)cc2)C(=O)C[C@@H](Cc2ccccc2)C(=O)N(C)[C@@H](C)CNC(=O)C[C@H](Cc2ccc(Cl)cc2)N(C)C1=O [Compound 162, (2S,5S,8S,13S,16R)-16-benzyl-1-(4-chloro-2-(4-(7-((S)-tetrahydrofuran-3-carbonyl)-5,6,7,8-tetrahydroimidazo[1,2-a]pyrazin-3-yl)phenoxy)benzyl)-8-(4-chlorobenzyl)-5-(methoxymethyl)-2,7,13,14-tetramethyl-1,4,7,11,14-pentaazacyclooctadecane-3,6,10,15,18-pentaone]
- Max % inhibition: 91.41%
- IC50: 2.9 nM

Compound: COC[C@@H]1NC(=O)[C@H](C)N(Cc2ccc(Cl)cc2Oc2ccc(-c3nnc4n3CCNC4)cc2)C(=O)C[C@@H](Cc2ccccc2)C(=O)N(C)[C@@H](C)CNC(=O)C[C@H](Cc2ccc(Cl)cc2)N(C)C1=O [Compound 114, (2S,5S,8S,13S,16R)-16-benzyl-1-(4-chloro-2-(4-(5,6,7,8-tetrahydro-[1,2,4]triazolo[4,3-a]pyrazin-3-yl)phenoxy)benzyl)-8-(4-chlorobenzyl)-5-(methoxymethyl)-2,7,13,14-tetramethyl-1,4,7,11,14-pentaazacyclooctadecane-3,6,10,15,18-pentaone]
- Max % inhibition: 57.46%
- IC50: 4.5 nM

Compound: COC[C@@H]1NC(=O)[C@H](C)N(Cc2ccc(Cl)cc2Oc2ccc(-c3cnc(CN4CCCC4)n3C)cc2)C(=O)C[C@@H](Cc2ccc(F)cc2F)C(=O)N(C)[C@@H](C)CNC(=O)C[C@H](Cc2ccc(Cl)cc2)N(C)C1=O [Compound 22, (2S,5S,8S,13S,16R)-1-(4-chloro-2-(4-(1-methyl-2-(pyrrolidin-1-ylmethyl)-1H-imidazol-5-yl)phenoxy)benzyl)-8-(4-chlorobenzyl)-16-(2,4-difluorobenzyl)-5-(methoxymethyl)-2,7,13,14-tetramethyl-1,4,7,11,14-pentaazacyclooctadecane-3,6,10,15,18-pentaone]
- Max % inhibition: 98.82%
- IC50: 1.1 nM

Compound: COC[C@H]1C(=O)N(C)[C@@H](Cc2ccc(Cl)cc2)CC(=O)NC[C@H](C)N(C)C(=O)[C@H](Cc2ccccc2)CC(=O)N(Cc2ccc(Cl)cc2Oc2ccc(-c3cnc(CN(C)C)n3C)cc2)[C@H]2CC(=O)N1C2=O [Compound 13, (2S,5S,10S,13R,17S)-13-benzyl-16-(4-chloro-2-(4-(2-((dimethylamino)methyl)-1-methyl-1H-imidazol-5-yl)phenoxy)benzyl)-5-(4-chlorobenzyl)-2-(methoxymethyl)-4,10,11-trimethyl-1,4,8,11,16-pentaazabicyclo[15.2.1]icosane-3,7,12,15,19,20-hexaone]
- Max % inhibition: 101.32%
- IC50: 106 nM

Compound: COC[C@@H]1NC(=O)[C@H](C)N(Cc2ccc(Cl)cc2Oc2ccc(-c3cnc(CN(C)C)n3C)cc2)C(=O)C[C@@H](Cc2ccccc2)C(=O)N(C)[C@@H]2C[C@@H]2NC(=O)C[C@H](Cc2ccc(Cl)cc2)N(C)C1=O [Compound 77, (1S,5S,8S,11S,15R,18R)-15-benzyl-12-(4-chloro-2-(4-(2-((dimethylamino)methyl)-1-methyl-1H-imidazol-5-yl)phenoxy)benzyl)-5-(4-chlorobenzyl)-8-(methoxymethyl)-6,11,17-trimethyl-2,6,9,12,17-pentaazabicyclo[16.1.0]nonadecane-3,7,10,13,16-pentaone]
- Max % inhibition: 104.08%
- IC50: 9 nM

Compound: COC[C@@H]1NC(=O)[C@H](C)N(Cc2ccc(Cl)cc2Oc2ccc(-c3cnc(CN(C)C)n3C)cc2)C(=O)CCC(=O)N(C)[C@H]2CCCC[C@@H]2NC(=O)C[C@H](Cc2ccc(Cl)cc2)N(C)C1=O [Compound 202, (4S,7S,10S,16aS,20aS)-11-(4-chloro-2-(4-(2-((dimethylamino)methyl)-1-methyl-1H-imidazol-5-yl)phenoxy)benzyl)-4-(4-chlorobenzyl)-7-(methoxymethyl)-5,10,16-trimethylhexadecahydrobenzo[l][1,4,7,11,14]pentaazacyclooctadecine-2,6,9,12,15(3H)-pentaone]
- Max % inhibition: 95.27%
- IC50: 2.9 nM

Compound: COC[C@@H]1NC(=O)[C@H](C)N(Cc2ccc(Cl)cc2Oc2ccc(-n3nnc(CN(C)C)c3C)cc2)C(=O)C[C@@H](Cc2ccccc2)C(=O)N(C)[C@@H](C)CNC(=O)C[C@H](Cc2ccc(Cl)cc2)N(C)C1=O.O=CO [Compound 134, (2S,5S,8S,13S,16R)-16-benzyl-1-(4-chloro-2-(4-(4-((dimethylamino)methyl)-5-methyl-1H-1,2,3-triazol-1-yl)phenoxy)benzyl)-8-(4-chlorobenzyl)-5-(methoxymethyl)-2,7,13,14-tetramethyl-1,4,7,11,14-pentaazacyclooctadecane-3,6,10,15,18-pentaone formate]
- Max % inhibition: 98.77%
- IC50: 39.5 nM

Compound: COC[C@@H]1NC(=O)[C@H](C)N(Cc2ccc(Cl)cc2Oc2ccc(-n3cc(CN4CCCCC4)nn3)cc2)C(=O)C[C@@H](Cc2ccccc2)C(=O)N(C)[C@@H](C)CNC(=O)C[C@H](Cc2ccc(Cl)cc2)N(C)C1=O [Compound 128, (2S,5S,8S,13S,16R)-16-benzyl-1-(4-chloro-2-(4-(4-(piperidin-1-ylmethyl)-1H-1,2,3-triazol-1-yl)phenoxy)benzyl)-8-(4-chlorobenzyl)-5-(methoxymethyl)-2,7,13,14-tetramethyl-1,4,7,11,14-pentaazacyclooctadecane-3,6,10,15,18-pentaone]
- Max % inhibition: 51.35%
- IC50: 20.4 nM
